This is an account of results in patent publication US8906381B2, “Immunonanotherapeutics that provide IGG humoral response without T-cell antigen” (Massachusetts Institute of Technology, priority 2008, dated 2014).

In one test the test system is anti-nicotine IgG. In words: Anti-nicotine IgG in immunized mice (ELISA). It is filed as in vivo, C57BL6 mice. Conditions: data of FIGS. 34 and 35. In general terms: In an ELISA, binding on a coated surface is turned into a signal by an enzyme label.
In test [1] the test system is CD4 T cells from OT-II donor mice. The experiment in a line: In vivo CD4 T cell activation (CFSE-labeled OT-II cells). Set-up: species or system C57BL6J mice. The following applies: three days after footpad immunization; CpG adjuvant. The procedure:
Subsequently, immunization experiments were performed by injecting one footpad with free OVA or with nanoparticles composed of either PLA or PLGA that encapsulated an equivalent amount of OVA as a model antigen. All antigenic mixtures also contained CpG (a TLR9 agonist) as an adjuvant. The animals were injected, sacrificed three days after immunization, and OT-II T cell activation was assessed by flow cytometry in single-cell suspensions from different tissues.
By contrast, activated T cells divide and in the process split the fluorescent dye evenly between the two daughter cells resulting in an incremental decrease in fluorescence intensity upon each successive division. Thus, the greater the left shift in CFSE, fluorescence the stronger T cells were activated.

On to `CN1CCCC1c1cccnc1` (centres unmarked) [free nicotine, nicotine], for which, in the test with anti-nicotine IgG, the “production of nicotine antibodies” value is recorded as “does not elicit the production of nicotine antibodies”. Regarding “free OVA: free chicken ovalbumin (OVA) model antigen, mixed with CpG adjuvant”, the “local T cell proliferation in distal lymphoid tissues (brachial lymph node, spleen)” value in test [1] is on record as “only undivided cells or cells with very low CFSE content”.
